# Data reported in patent US9849130B2 (KamTek, Inc., priority 2014, dated 2017).
# Where two headings read alike, the source gives them in different places.
# What was measured:
# [1] = system: Clostridium difficile (CD) strains; assay: microbe, parasite or virus in culture; assay type: cell-based
# C. perfringens MH310 = assay: microbe, parasite or virus in culture; assay type: cell-based
# C. difficile = assay: Minimum bactericidal concentration (MBC) against C. difficile; assay type: cell-based, Clostridium difficile
# CD strains = assay: In vitro activity of CFM + additional antimicrobial agent against CD (MIC alone/combination, FIC, ΣFIC); assay type: cell-based, Clostridium difficile; settings: CFM + VAN; for MIC: Clostridioides difficile
# Enterococcus faecalis = assay: MIC by microdilution in Mueller-Hinton broth against Enterococcus faecalis strains; assay type: cell-based; settings: Enterococcus faecalis
# Enterococci faecium = assay: MIC by microdilution in Mueller-Hinton broth against Enterococci faecium strains; assay type: cell-based, Enterococcus faecium
# [2] = system: Staphylococcus aureus strains; assay: MIC by microdilution in Mueller-Hinton broth against Staphylococcus aureus strains; assay type: cell-based; settings: Staphylococcus aureus
# Fusobacterium = assay: MIC by microdilution in Brucella broth against Fusobacterium; assay type: cell-based, Fusobacterium spp.
# Bifidobacterium strains = assay: MIC by microdilution in BHI broth against Bifidobacterium strains; assay type: cell-based, Bifidobacterium spp.; settings: Bifidobacterium
# Lactobacillus strains = assay: MIC against Lactobacillus strains; assay type: cell-based, Lactobacillus spp.
# [3] = system: Lachnospiraceae and related bacterial strains; assay: MIC against Lachnospiraceae and related bacterial strains; assay type: cell-based, Lachnospiraceae spp.
# C. difficile VPI10463 = settings: Clostridioides difficile, C. difficile VPI10463
# [4] = Clostridioides difficile, BAA1805
# [5] = Test 13, CD strain BAA1805 (BI/NAP1/027)
# [6] = Test 16, CD strain BAA1805 (BI/NAP1/027)
structure (smiles),measurement,setting,value
"CN[C@H](CC(C)C)C(=O)N[C@H]1C(=O)N[C@@H](CC(N)=O)C(=O)N[C@H]2C(=O)N[C@H]3C(=O)N[C@H](C(=O)N[C@H](C(=O)O)c4cc(O)cc(O)c4-c4cc3ccc4O)[C@H](O)c3ccc(c(Cl)c3)Oc3cc2cc(c3O[C@@H]2O[C@H](CO)[C@@H](O)[C@H](O)[C@H]2O[C@H]2C[C@](C)(N)[C@H](O)[C@H](C)O2)Oc2ccc(cc2Cl)[C@H]1O [VAN, vancomycin]",MIC Range,[1],0.25 to 2.0 µg/mL
same,MIC50,[1]; Clostridioides difficile,0.5 µg/mL
same,MIC90,[1]; Clostridioides difficile,2 µg/mL
same,MIC,[1]; [4],1 µg/mL
same,MIC,C. perfringens MH310,0.25 µg/mL
same,MIC,"C. perfringens MH310; Clostridium perfringens, MH310",0.5 µg/mL
same,MBC/MIC ratio range,C. difficile,1-4
same,MBC,C. difficile; [4],2 µg/mL
same,MIC,"CD strains; BAA1805, read-out: MIC alone, Test 13, CD strain BAA1805 (BI/NAP1/027)",0.5 µg/mL
same,MIC,"CD strains; BAA1805, read-out: MIC alone, Test 16, CD strain BAA1805 (BI/NAP1/027)",0.5 µg/mL
same,MIC,"CD strains; read-out: MIC alone, Test 1, CD strain VPI 10463",2 µg/mL
same,MIC,"CD strains; read-out: MIC alone, Test 2, CD strain VPI 10463",2 µg/mL
same,MIC,"CD strains; read-out: MIC alone, Test 5, CD strain NR32889",2 µg/mL
same,MIC,"CD strains; read-out: MIC alone, Test 6, CD strain NR32890",1 µg/mL
same,MIC,"CD strains; read-out: MIC alone, Test 7, CD strain NR32885",1 µg/mL
same,MIC,"CD strains; read-out: MIC alone, Test 9, CD strain NR32885",1 µg/mL
same,MIC,"CD strains; read-out: MIC alone, Test 11, CD strain NR32885",1 µg/mL
same,MIC,"CD strains; read-out: MIC alone, Test 18, CD strain NR32888",0.5 µg/mL
same,MIC,"CD strains; read-out: MIC alone, Test 20, CD strain NR32888",0.5 µg/mL
same,FIC,"CD strains; Test 1, CD strain VPI 10463",0.25
same,MIC combination,"CD strains; Test 1, CD strain VPI 10463",0.5 µg/mL
same,FIC,"CD strains; Test 2, CD strain VPI 10463",0.25
same,MIC combination,"CD strains; Test 2, CD strain VPI 10463",0.5 µg/mL
same,FIC,"CD strains; Test 5, CD strain NR32889",1
same,MIC combination,"CD strains; Test 5, CD strain NR32889",2 µg/mL
same,FIC,"CD strains; Test 6, CD strain NR32890",0.5
same,MIC combination,"CD strains; Test 6, CD strain NR32890",0.5 µg/mL
same,FIC,"CD strains; Test 7, CD strain NR32885",0.5
same,MIC combination,"CD strains; Test 7, CD strain NR32885",0.5 µg/mL
same,FIC,"CD strains; Test 9, CD strain NR32885",0.25
same,MIC combination,"CD strains; Test 9, CD strain NR32885",0.25 µg/mL
same,FIC,"CD strains; Test 11, CD strain NR32885",0.25
same,MIC combination,"CD strains; Test 11, CD strain NR32885",0.25 µg/mL
same,FIC,CD strains; [5],0.062
same,MIC combination,CD strains; [5],0.031 µg/mL
same,FIC,CD strains; [6],0.25
same,MIC combination,CD strains; [6],0.125 µg/mL
same,FIC,"CD strains; Test 18, CD strain NR32888",0.5
same,MIC combination,"CD strains; Test 18, CD strain NR32888",0.25 µg/mL
same,FIC,"CD strains; Test 20, CD strain NR32888",0.5
same,MIC combination,"CD strains; Test 20, CD strain NR32888",0.25 µg/mL
same,MIC,Enterococcus faecalis; E. faecalis NR 31884,2 µg/mL
same,MIC,Enterococcus faecalis; E. faecalis NR 31885,2 µg/mL
same,MIC,Enterococcus faecalis; E. faecalis NR 31886,1 µg/mL
same,MIC,Enterococcus faecalis; E. faecalis NR 31887,1 µg/mL
same,MIC,Enterococcus faecalis; E. faecalis NR 31888,2 µg/mL
same,MIC,"Enterococci faecium; E. faecium NR 31909, Mueller-Hinton broth",>32 µg/mL
same,MIC,"Enterococci faecium; E. faecium NR 31912, Mueller-Hinton broth",>32 µg/mL
same,MIC,"Enterococci faecium; E. faecium NR 31915, Mueller-Hinton broth",>32 µg/mL
same,MIC,"Enterococci faecium; E. faecium NR 31916, Mueller-Hinton broth",>32 µg/mL
same,MIC,Enterococci faecium; Enterococcus faecium,> 32 µg/mL
same,MIC,[2]; S. aureus NR 10129,1 µg/mL
same,MIC,[2]; S. aureus NR 10186,1 µg/mL
same,MIC,[2]; S. aureus NR 10187,2 µg/mL
same,MIC,[2]; S. aureus NR 10188,1 µg/mL
same,MIC,[2]; S. aureus NR 10189,2 µg/mL
same,MIC,[2]; S. aureus NR 10191,1 µg/mL
same,MIC,[2]; S. aureus NR 10192,1 µg/mL
same,MIC,[2]; S. aureus NR 10193,2 µg/mL
same,MIC,[2]; S. aureus NR 10194,1 µg/mL
same,MIC,[2]; S. aureus NR 10198,2 µg/mL
same,MIC,[2]; Staphylococcus aureus strain NR 10129,1 µg/mL
same,MIC,[2]; Staphylococcus aureus strain NR 10186,1 µg/mL
same,MIC,[2]; Staphylococcus aureus strain NR 10187,2 µg/mL
same,MIC,[2]; Staphylococcus aureus strain NR 10188,1 µg/mL
same,MIC,[2]; Staphylococcus aureus strain NR 10189,2 µg/mL
same,MIC,[2]; Staphylococcus aureus strain NR 10191,1 µg/mL
same,MIC,[2]; Staphylococcus aureus strain NR 10192,1 µg/mL
same,MIC,[2]; Staphylococcus aureus strain NR 10193,2 µg/mL
same,MIC,[2]; Staphylococcus aureus strain NR 10194,1 µg/mL
same,MIC,[2]; Staphylococcus aureus strain NR 10198,2 µg/mL
same,MIC,Fusobacterium,> 32 µg/mL
same,MIC,Fusobacterium; Fusobacterium,> 32 µg/mL
same,MIC,Bifidobacterium strains,0.25 µg/mL
same,in vitro activity against Lactobacillus spp. (in words),Lactobacillus strains,six strains susceptible and four resistant
same,susceptibility of Lachnospiraceae and related organisms (in words),[3],susceptible
same,MIC,[3]; Clostridiales bacterium,0.25 µg/mL
same,MIC,"C. difficile VPI10463; VPI10463, Expt. 1, fecal extract (human feces 20% w/v in BHI)",1 µg/mL
same,MIC,"C. difficile VPI10463; VPI10463, Expt. 1, −fecal extract",0.5 µg/mL
same,MIC,"C. difficile VPI10463; VPI10463, Expt. 2, +fecal extract (human feces 20% w/v in BHI)",0.5 µg/mL
same,MIC,"C. difficile VPI10463; VPI10463, Expt. 2, −fecal extract",0.5 µg/mL
